This is an account of results in ChEMBL document CHEMBL1201862, “PubChem BioAssay data set” (2004).

Molecules are shown by their SMILES.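 Protocol summary: plate cells (96-well), add compound at 5 concentrations, incubate 48 h, interpolate endpoints linearly. At the GI50, growth is halved.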 Active and inactive are the calls of the source. No stated cut-off is given here; in the data, active = GI50 up to about 1.1 µM and inactive = higher.

Test systems include SNB-19; NCI-H522; OVCAR-3; PC-3; Malme-3M; TK-10; HOP-92; SR; LOX IMVI; SF-268; SK-MEL-5; T47D; OVCAR-4; SF-295; 786-0; UO-31; Hs-578T; BT-549; M14; SN12C.
Holding throughout (experiment): NCI tumour cell line growth inhibition, 48 h

With `Cc1c(C)c(C)c(-n2c(=O)n(C)c(=O)n2-c2cc(C(C)(C)C)cc(C(C)(C)C)c2O)c(C)c1C`, the GI50 with SNB-19 is 5.74 µM (inactive); with NCI-H522 it was 4.54 µM (inactive); with OVCAR-3 it was 4.68 µM (inactive); in the test on PC-3 it was 3.03 µM (inactive); in the test with Malme-3M it was 11.9 µM (inactive); with TK-10 it was 10.1 µM (inactive). In addition, the GI50 was 5.5 µM (inactive) with HOP-92; 3.91 µM (inactive) in the test on SR; 13.6 µM (inactive) with LOX IMVI; 12.4 µM (inactive) in the test with SF-268; 6.21 µM (inactive) in the test on SK-MEL-5; 4.89 µM (inactive) in the test with T47D. Moreover, the GI50 is 7.28 µM (inactive) in the test on OVCAR-4; 8.99 µM (inactive) in the test with SF-295; 10.4 µM (inactive) in the test on 786-0; 3.08 µM (inactive) in the test on UO-31; 10.4 µM (inactive) in the test with Hs-578T; 13.5 µM (inactive) in the test with BT-549. In addition, the GI50 in the test on M14 was 10.2 µM (inactive); in the test on SN12C it was 9.44 µM (inactive).

`COC(=O)[C@@H](Cc1ccccc1)N1O[C@]12CCCC[C@@H]2NC(=O)OC(C)(C)C` (stereo not given in full): the GI50 was 74.3 µM (inactive) in the test on SNB-19; 16.7 µM (inactive) with NCI-H522; 21.9 µM (inactive) in the test with OVCAR-3; 25.6 µM (inactive) in the test with PC-3; 22.1 µM (inactive) in the test with Malme-3M; 25.1 µM (inactive) with TK-10. Moreover, the GI50 with HOP-92 was 21.3 µM (inactive); in the test with SR it was 29.3 µM (inactive); in the test on SF-268, 18 µM (inactive); with SK-MEL-5, 19.5 µM (inactive); with T47D it was 24.7 µM (inactive); with OVCAR-4, 31.6 µM (inactive). Further, the GI50 in the test on SF-295 is 55.6 µM (inactive); in the test on 786-0, 26.1 µM (inactive); with UO-31 it was 14.5 µM (inactive); in the test with Hs-578T, 21.6 µM (inactive); in the test with BT-549, 18.1 µM (inactive); with M14, 19.1 µM (inactive). In addition, the GI50 in the test with SN12C is 32.3 µM (inactive).

Turning to `COc1ccc(/C=C2\N/C(=N\N=C/C(O)C(O)C(O)C(O)CO)NC2=O)cc1` (stereo not given), the GI50 was 20.3 µM (inactive) with NCI-H522; 18.6 µM (inactive) with OVCAR-3; 26.2 µM (inactive) in the test with PC-3; 23.1 µM (inactive) with Malme-3M; 41.6 µM (inactive) with TK-10; 16.1 µM (inactive) with HOP-92. The GI50 was 45.2 µM (inactive) in the test on SR; 65.3 µM (inactive) in the test with LOX IMVI; 22.7 µM (inactive) in the test on SF-268; 47.3 µM (inactive) with SK-MEL-5; 12.5 µM (inactive) with T47D; 24 µM (inactive) in the test with OVCAR-4. In addition, the GI50 was 40.5 µM (inactive) in the test on SF-295; 35.5 µM (inactive) with 786-0; 91 µM (inactive) with UO-31; 26.9 µM (inactive) with Hs-578T; 24.6 µM (inactive) in the test on BT-549; 19.4 µM (inactive) with M14. The GI50 in the test on SN12C was 23.9 µM (inactive).

With `Cc1ccc2c(c1)C/C(=C\c1ccccc1C(=O)O)C2=O`, the GI50 in the test with SNB-19, with NCI-H522, with OVCAR-3, with PC-3, with Malme-3M and in the test on TK-10 was > 100 µM (inactive) in each case. The GI50 in the test on HOP-92 was > 100 µM (inactive); in the test with SR, 46.3 µM (inactive); in the test on LOX IMVI, > 100 µM (inactive); with SF-268 it was > 100 µM (inactive); in the test on SK-MEL-5, 52.6 µM (inactive); in the test on T47D, > 100 µM (inactive). The GI50 was > 100 µM (inactive) with OVCAR-4; > 100 µM (inactive) in the test with SF-295; > 100 µM (inactive) in the test on 786-0; 98.6 µM (inactive) with UO-31; > 100 µM (inactive) with Hs-578T; > 100 µM (inactive) with BT-549. For the same compound, in the test on SN12C, the GI50 is > 100 µM (inactive).

With `CC1=C[C@H]([C@H]2C=C(C)C(C(N)=O)=CN2Cc2c(Cl)cccc2Cl)N(Cc2c(Cl)cccc2Cl)C=C1C(N)=O`, the GI50 in the test on SNB-19 is > 75 µM (inactive); in the test with NCI-H522 it was 57.1 µM (inactive); in the test on OVCAR-3 it was > 75 µM (inactive); in the test on PC-3 it was > 75 µM (inactive); in the test on Malme-3M, > 75 µM (inactive); in the test with TK-10, > 75 µM (inactive). The GI50 with HOP-92 was 16 µM (inactive); with SR, > 75 µM (inactive); in the test on LOX IMVI, > 75 µM (inactive); in the test on SF-268, > 75 µM (inactive); in the test on SK-MEL-5, > 75 µM (inactive); in the test with T47D, 37 µM (inactive). For the same compound, the GI50 is 55.5 µM (inactive) in the test with OVCAR-4; > 75 µM (inactive) in the test with SF-295; > 75 µM (inactive) with 786-0; > 75 µM (inactive) in the test with UO-31; > 75 µM (inactive) in the test on Hs-578T; > 75 µM (inactive) with BT-549. Also, the GI50 with M14 and in the test with SN12C was > 75 µM (inactive) each time.

Take `C/C(=N\O)c1ccc(Nc2nc3ccccc3c3occc23)cc1`: the GI50 in the test on SNB-19 was 16.1 µM (inactive); with NCI-H522, 3.34 µM (inactive); in the test with OVCAR-3 it was 12.4 µM (inactive); in the test on PC-3, 10.6 µM (inactive); in the test on Malme-3M, 19.9 µM (inactive); with TK-10 it was 2.9 µM (inactive). Further, the GI50 with HOP-92 is 6.78 µM (inactive); in the test on SR, 2.37 µM (inactive); with LOX IMVI, 4.23 µM (inactive); in the test with SF-268 it was 6.31 µM (inactive); in the test on SK-MEL-5, 8.51 µM (inactive); in the test on T47D, 5.45 µM (inactive). In addition, the GI50 in the test with SF-295 was 3.4 µM (inactive); in the test with 786-0, 3.8 µM (inactive); in the test with UO-31, 15.9 µM (inactive); with Hs-578T it was 9.18 µM (inactive); in the test with BT-549, 18.3 µM (inactive); with M14 it was 4.86 µM (inactive). Besides, the GI50 in the test on SN12C was 13.1 µM (inactive).

On to `FC(F)(F)c1ccccc1C1SCC2=Nc3ccccc3CN21` (stereo not given), for which the GI50 in the test on SNB-19 was 10.1 µM (inactive); in the test on PC-3, 14.1 µM (inactive); with TK-10, 14.4 µM (inactive); in the test with HOP-92 it was 17 µM (inactive); with SR, 21.2 µM (inactive); in the test on LOX IMVI, 15.1 µM (inactive). The GI50 in the test on SF-268 was 15.1 µM (inactive); with SK-MEL-5 it was 14.7 µM (inactive); in the test with T47D it was 16.8 µM (inactive); with OVCAR-4 it was 15.4 µM (inactive); in the test with SF-295 it was 13.1 µM (inactive); in the test with 786-0, 11.9 µM (inactive). The GI50 in the test with UO-31 is 11.8 µM (inactive); in the test on Hs-578T it was 12.3 µM (inactive); with BT-549, 19.3 µM (inactive); in the test with M14, 12.2 µM (inactive); with SN12C, 27 µM (inactive).

As to `CCOC(=O)c1sc2nc1CSc1sc(=S)sc1SCc1nc(sc1C(=O)OCC)-c1nc(c(C(=O)OCC)s1)CSc1sc(=S)sc1SCc1nc-2sc1C(=O)OCC`, the GI50 with SNB-19, in the test on NCI-H522, with OVCAR-3, in the test on PC-3, in the test on Malme-3M and in the test with TK-10 was > 10 µM (inactive) each time. Further, the GI50 in the test on HOP-92, with SR, in the test with LOX IMVI, in the test with SF-268, in the test with SK-MEL-5 and with T47D was > 10 µM (inactive) throughout. The GI50 in the test with OVCAR-4, in the test on SF-295, with 786-0, with UO-31, in the test on Hs-578T and with BT-549 was > 10 µM (inactive) each time. Further, the GI50 in the test on SN12C was > 10 µM (inactive).

For `Cc1ccc(N2C(=O)C(O)=C(C(=O)C(C)(C)C)C2c2ccc([N+](=O)[O-])cc2)cc1` (stereo not given), the GI50 in the test on SNB-19 was 19.4 µM (inactive); in the test with OVCAR-3, 19.6 µM (inactive); in the test on PC-3, 29.9 µM (inactive); in the test with Malme-3M it was 19 µM (inactive); in the test on TK-10, 36.2 µM (inactive); in the test on HOP-92 it was 13.7 µM (inactive). The GI50 in the test with SR is 7.53 µM (inactive); in the test on LOX IMVI it was 14.9 µM (inactive); in the test on SF-268 it was 13 µM (inactive); with SK-MEL-5, 15.8 µM (inactive); in the test with T47D it was 18.8 µM (inactive); in the test on OVCAR-4, 6.71 µM (inactive). Moreover, the GI50 in the test on SF-295 was 20.9 µM (inactive); in the test on 786-0 it was 16.3 µM (inactive); in the test on UO-31, 29.6 µM (inactive); with Hs-578T it was 16.9 µM (inactive); in the test with BT-549 it was 11.1 µM (inactive); in the test with M14, 18.2 µM (inactive). The GI50 with SN12C is 15.4 µM (inactive).

Consider `c1ccc(C(=NNc2nc3ccccc3o2)c2ccccn2)nc1`, for which the GI50 in the test on SNB-19 was 0.194 µM (active); with NCI-H522, 0.0776 µM (active); in the test on PC-3 it was < 0.0191 µM (active); in the test on Malme-3M, 0.0182 µM (active); with TK-10, 0.0574 µM (active); in the test with HOP-92 it was < 0.01 µM (active). For the same compound, the GI50 is 0.0388 µM (active) in the test with SR; 0.122 µM (active) in the test with LOX IMVI; 0.0841 µM (active) in the test with SF-268; 0.0818 µM (active) with SK-MEL-5; < 0.01 µM (active) in the test on T47D; 0.0261 µM (active) in the test with OVCAR-4. Further, the GI50 in the test on SF-295 is 0.121 µM (active); in the test with 786-0, < 0.0254 µM (active); in the test with UO-31 it was 0.0685 µM (active); in the test on Hs-578T it was 0.447 µM (active); with BT-549 it was 0.0908 µM (active); with M14, 0.0281 µM (active). In addition, the GI50 with SN12C was 0.118 µM (active).
